Source: patent publication US4764433A, “Agent for the protection of materials” (Bayer Aktiengesellschaft, priority 1985, dated 1988)
≈ marks a conversion by molar mass, not a printed value.

Legend:
Penicillium glaucum = experiment: MIC against fungi (agar, beer wort and peptone); assay type: cell-based; conditions: 336 h, 2 weeks at 28° C., 60 to 70% relative humidity, read-out: MIC values when substances according to the invention act on fungi
Experimental: (§1) Compounds according to the invention are added, in concentrations of 0.1 mg/l to 5,000 mg/l, to an agar prepared from beer wort and peptone.

Aspergillus niger = experiment: MIC against fungi (agar, beer wort and peptone); assay type: cell-based; conditions: 336 h, 2 weeks at 28° C., 60 to 70% relative humidity, read-out: MIC values when substances according to the invention act on fungi
Experimental: as §1

Chaetomium globosum = experiment: MIC against fungi (agar, beer wort and peptone); assay type: cell-based; conditions: 336 h, 2 weeks at 28° C., 60 to 70% relative humidity, read-out: MIC values when substances according to the invention act on fungi
Experimental: as §1

Coniophora puteana [1] = experiment: Limiting toxic values (toxicity limits) on pinewood; conditions: 6 weeks at 21° to 23° C.; concentrations at which timber still attacked - no longer attacked
Experimental: (§2) Determination of the limiting toxic values (kg/m^3 of timber) of active compounds according to the invention for Coniophora puteana and Polyporus versicolor on pinewood and beechwood, respectively.
(§3) The limiting toxic values are determined by a method modelled on the method described by H. P. Sutter, Int. Biodeterioration Bulletin, 14 (3), 1978, pages 95 to 99.
(§4) For each test, freshly cut, thin pieces of cross-cut timber (dimensions 40×40 mm, thickness about 2 mm) are impregnated in vacuo with solutions of varying concentrations of active compounds. In each case one concentration of active compound is used to impregnate 15 timber samples simultaneously. 5 of these are in each case used at the same time for a mycological test.
(§5) The amount of active compound absorbed is determined from the retention of solvent (determined by weighing the small piece of timber before and after impregnation), the density of the timber and the concentration of the active compound in the residual impregnating solution.
(§6) Before the mycological test, the test specimens are sterilized with propylene oxide and in each case 1 test specimen is brought into contact in a Petri dish with the fully developed mycellium of the test fungus on malt extract agar. The toxicity limits are determined visually after 6 weeks at 21° to 23° C.
(§7) The toxicity limits ([…] of timber) for substances according to the invention are shown in the table below; the toxicity limits indicate the concentrations at which the timber is still attacked and at which the timber is no longer attacked.

slime organisms = experiment: Action against slime organisms, MIC in Allen's nutrient solution; assay type: cell-based; conditions: 504 h, approx. 10^6 microbes/ml, 3 weeks at room temperature, read-out: MIC in mg/l when the substances act on slime organisms
Experimental: Substances according to the invention, dissolved in a little acetone, are used in concentrations of 0.1 to 100 mg/l in a particular case in Allen's nutrient solution (Arch. Mikrobiol., 17, 34 to 53 (1952)), containing, in 4 l of sterile water, 0.2 g of ammonium chloride, 4.0 g of sodium nitrate, 1.0 g of dipotassium hydrogen phosphate, 0.2 g of calcium chloride, 2.05 g of magnesium sulphate, 0.02 g of iron chloride and 1% of caprolactam. Shortly beforehand, the nutrient solution is infested with slime organisms (approx. 10^6 microbes/ml) which have been isolated from circulating spinning water used in the production of polyamide.

Polyporus versicolor [2] = experiment: Limiting toxic values (toxicity limits) on beechwood; conditions: 6 weeks at 21° to 23° C.; concentrations at which timber still attacked - no longer attacked
Experimental: as §2, §3, §4, §5, §6, §7

Sclerophoma pityophila = experiment: MIC against fungi (agar, beer wort and peptone); assay type: cell-based; conditions: Sydowia polyspora, 336 h, 2 weeks at 28° C., 60 to 70% relative humidity, read-out: MIC values when substances according to the invention act on fungi
Experimental: as §1

Lentinus tigrinus = experiment: MIC against fungi (agar, beer wort and peptone); assay type: cell-based; conditions: 336 h, 2 weeks at 28° C., 60 to 70% relative humidity, read-out: MIC values when substances according to the invention act on fungi
Experimental: as §1

Coniophora puteana [3] = experiment: MIC against fungi (agar, beer wort and peptone); assay type: cell-based; conditions: 336 h, 2 weeks at 28° C., 60 to 70% relative humidity, read-out: MIC values when substances according to the invention act on fungi
Experimental: as §1

Polyporus versicolor [4] = experiment: MIC against fungi (agar, beer wort and peptone); assay type: cell-based; conditions: Trametes versicolor, 336 h, 2 weeks at 28° C., 60 to 70% relative humidity, read-out: MIC values when substances according to the invention act on fungi
Experimental: as §1

Aureobasidium pullulans = experiment: MIC against fungi (agar, beer wort and peptone); assay type: cell-based; conditions: 336 h, 2 weeks at 28° C., 60 to 70% relative humidity, read-out: MIC values when substances according to the invention act on fungi
Experimental: as §1

Alternaria tenuis = experiment: MIC against fungi (agar, beer wort and peptone); assay type: cell-based; conditions: Alternaria alternata, 336 h, 2 weeks at 28° C., 60 to 70% relative humidity, read-out: MIC values when substances according to the invention act on fungi
Experimental: as §1

Phytophthora infestans = assay type: in vivo; conditions: for % attack at an active compound concentration of 10 ppm: tomato plants, protective; for fungicidal properties for plant protection: phytophthora test [tomatoes], sulphamides compared with N-sulphenylated benzenesulphonamides according to the invention
[5] = cited from earlier work

SMILES	MIC (Penicillium glaucum) [µg/mL]	MIC (Aspergillus niger) [µg/mL]	MIC (Chaetomium globosum) [µg/mL]	Toxicity Limits, Coniophora puteana on pinewood (Coniophora puteana [1])	MIC (slime organisms) [mg/L]	Toxicity Limits, Polyporus versicolor on beechwood (Polyporus versicolor [2])	MIC (Sclerophoma pityophila) [µg/mL]	MIC (Lentinus tigrinus) [µg/mL]	MIC (Coniophora puteana [3]) [µg/mL]	MIC (Polyporus versicolor [4]) [µg/mL]	MIC (Aureobasidium pullulans) [µg/mL]	MIC (Alternaria tenuis) [µg/mL]	% attack at an active compound concentration of 10 ppm (Phytophthora infestans) [%]	fungicidal properties for plant protection (Phytophthora infestans)	solubility in the formulating agents customary for timber preservatives [5]
CCN(SC(F)(Cl)Cl)S(=O)(=O)c1ccccc1 [Example 2]	10 (≈ 31.4 µM)	10 (≈ 31.4 µM)	< 2	0.24-0.74 kg/m^3 of timber	≤ 2	1.4-2.4 kg/m^3 of timber	–	–	–	–	–	–	–	–	–
CCCCN(SC(F)(Cl)Cl)S(=O)(=O)c1ccccc1 [Example 3]	–	–	–	0.25-0.76 kg/m^3 of timber	–	0.63-1.29 kg/m^3 of timber	–	–	–	–	–	–	–	–	–
CN(SC(F)(Cl)Cl)S(=O)(=O)c1ccccc1 [Example 24]	5 (≈ 16.4 µM)	5 (≈ 16.4 µM)	3.5 (≈ 11.5 µM)	–	–	–	–	–	–	–	–	–	–	–	–
CCN(SC(F)(Cl)Cl)S(=O)(=O)c1ccc(Cl)cc1 [Example 6]	10 (≈ 28.4 µM)	10 (≈ 28.4 µM)	35 (≈ 99.2 µM)	–	–	–	7.5 (≈ 21.3 µM)	0.5 (≈ 1.42 µM)	0.75 (≈ 2.13 µM)	1 (≈ 2.84 µM)	10 (≈ 28.4 µM)	20 (≈ 56.7 µM)	–	–	–
CCN(SC(F)(Cl)Cl)S(=O)(=O)c1ccc(C)cc1 [Example 4]	20 (≈ 60.2 µM)	10 (≈ 30.1 µM)	7.5 (≈ 22.6 µM)	0.65-1.3 kg/m^3 of timber	–	2.8-3.7 kg/m^3 of timber	3.5 (≈ 10.5 µM)	0.5 (≈ 1.5 µM)	0.3 (≈ 0.903 µM)	0.5 (≈ 1.5 µM)	3.5 (≈ 10.5 µM)	10 (≈ 30.1 µM)	–	–	–
CN(SC(F)(Cl)Cl)S(=O)(=O)c1ccc(Cl)c([N+](=O)[O-])c1 [Example 26]	20 (≈ 52.1 µM)	50 (≈ 130 µM)	20 (≈ 52.1 µM)	–	–	–	–	–	–	–	–	–	–	–	–
CN(SC(F)(Cl)Cl)S(=O)(=O)c1ccc(Cl)c(Cl)c1 [Example 25]	10 (≈ 26.8 µM)	20 (≈ 53.6 µM)	7.5 (≈ 20.1 µM)	–	–	–	–	–	–	–	–	–	–	–	–
Cc1ccc(N(SC(F)(Cl)Cl)S(=O)(=O)N(C)C)cc1 [drawing 13]	–	–	–	–	–	–	–	–	–	–	–	–	14	–	–
CN(C)S(=O)(=O)N(SC(F)(Cl)Cl)c1ccccc1 [drawing 12]	–	–	–	–	–	–	–	–	–	–	–	–	19	–	–
COCCCN(SC(F)(Cl)Cl)S(=O)(=O)c1ccc(C)cc1 [Example 22]	35 (≈ 93 µM)	20 (≈ 53.1 µM)	5 (≈ 13.3 µM)	–	–	–	–	–	–	–	–	–	–	–	–
Cc1ccc(N(SC(F)(Cl)Cl)S(=O)(=O)N(C)C)cc1 [N,N-dimethyl-N'-(4-tolyl)-N'-dichlorofluoromethylthio-sulphamide]	–	–	–	–	–	–	–	–	–	–	–	–	–	considerably better fungicidal properties for plant protection	–
O=C1c2ccccc2C(=O)N1SC(F)(Cl)Cl [A, N-fluorodichloromethylthiophthalimide, reference compound]	35 (≈ 125 µM)	200 (≈ 714 µM)	100 (≈ 357 µM)	–	–	–	10 (≈ 35.7 µM)	2 (≈ 7.14 µM)	2 (≈ 7.14 µM)	50 (≈ 179 µM)	50 (≈ 179 µM)	10 (≈ 35.7 µM)	–	–	–
CN(SC(F)(Cl)Cl)S(=O)(=O)c1ccc([N+](=O)[O-])cc1 [Example 14]	20 (≈ 57.3 µM)	20 (≈ 57.3 µM)	20 (≈ 57.3 µM)	0.26-0.79 kg/m^3 of timber	–	2.2-3.07 kg/m^3 of timber	3.5 (≈ 10 µM)	5 (≈ 14.3 µM)	3.5 (≈ 10 µM)	10 (≈ 28.6 µM)	5 (≈ 14.3 µM)	35 (≈ 100 µM)	–	–	–
CN(SC(F)(Cl)Cl)S(=O)(=O)c1cccc([N+](=O)[O-])c1 [Example 27]	20 (≈ 57.3 µM)	20 (≈ 57.3 µM)	20 (≈ 57.3 µM)	–	–	–	–	–	–	–	–	–	–	–	–
CN(C)S(=O)(=O)N(SC(F)(Cl)Cl)c1ccccc1 [B, N,N-dimethyl-N'-phenyl-N'-(fluorodichloromethylthio)-sulphamide, reference compound]	50 (≈ 150 µM)	50 (≈ 150 µM)	50 (≈ 150 µM)	1.61-2.25 kg/m^3 of timber	–	2.23-2.81 kg/m^3 of timber	15 (≈ 45 µM)	10 (≈ 30 µM)	7.5 (≈ 22.5 µM)	20 (≈ 60 µM)	7.5 (≈ 22.5 µM)	10 (≈ 30 µM)	–	considerably better fungicidal properties for plant protection	very sparingly soluble
Cc1ccc(S(=O)(=O)N(C)SC(F)(Cl)Cl)cc1 [Example 1, N-fluorodichloromethylthio-N-methylamide of 4-toluenesulphonic acid]	10 (≈ 31.4 µM)	10 (≈ 31.4 µM)	3.5 (≈ 11 µM)	0.22-0.65 kg/m^3 of timber	≤ 2	2.2-2.9 kg/m^3 of timber	5 (≈ 15.7 µM)	5 (≈ 15.7 µM)	0.5 (≈ 1.57 µM)	2 (≈ 6.28 µM)	5 (≈ 15.7 µM)	20 (≈ 62.8 µM)	–	–	–
CN(SC(F)(Cl)Cl)S(=O)(=O)c1cc(Cl)ccc1Cl [Example 28]	15 (≈ 40.2 µM)	20 (≈ 53.6 µM)	35 (≈ 93.8 µM)	–	–	–	–	–	–	–	–	–	–	–	–
Cc1ccc(S(=O)(=O)N(C)SC(F)(Cl)Cl)cc1C [Example 17]	10 (≈ 30.1 µM)	10 (≈ 30.1 µM)	3.5 (≈ 10.5 µM)	–	–	–	–	–	–	–	–	–	–	–	–
Cc1ccc(S(=O)(=O)N(C)SC(F)(Cl)Cl)cc1[N+](=O)[O-] [Example 8]	20 (≈ 55.1 µM)	20 (≈ 55.1 µM)	15 (≈ 41.3 µM)	–	–	–	5 (≈ 13.8 µM)	5 (≈ 13.8 µM)	0.75 (≈ 2.06 µM)	7.5 (≈ 20.6 µM)	5 (≈ 13.8 µM)	5 (≈ 13.8 µM)	–	–	–
Cc1ccc(C)c(S(=O)(=O)N(C)SC(F)(Cl)Cl)c1 [Example 19]	20 (≈ 60.2 µM)	10 (≈ 30.1 µM)	< 2	0.24-0.72 kg/m^3 of timber	–	1.07-1.76 kg/m^3 of timber	10 (≈ 30.1 µM)	100 (≈ 301 µM)	7.5 (≈ 22.6 µM)	100 (≈ 301 µM)	35 (≈ 105 µM)	100 (≈ 301 µM)	–	–	–
